Laboratory results as given in patent publication US11730712B2, “Functionalized long-chain hydrocarbon mono- and di-carboxylic acids and derivatives thereof, and their use for the prevention or treatment of disease” (ESPERVITA THERAPEUTICS, INC., priority 2021, dated 2023).

Key:
[1] = test system: Hepa1-6 murine hepatoma cells; assay: Cell proliferation assay (presto blue, 72 h); type: cell-based, mouse; conditions: for Hepa1-6 cell proliferation compared to control, compound alone: 100 μM; for Hepa1-6 cell proliferation compared to control, compound alone / inhibition of Hepa1-6 cell proliferation in combination with lenvatinib vs each agent alone / inhibition of Hepa 1-6 cell proliferation in combination with regorafenib vs individual effects / inhibition of Hepa1-6 cell proliferation in combination with sorafenib vs each agent alone: 72 h; for IC50: Mus musculus, Hepa1-6, 72 h, read-out: Hepa1-6 (IC50), anti-proliferation activity; for synergism with lenvatinib (CI), Hepa1-6 cells: all tested concentrations: 1 μM and 0.3 μM to 100 μM and 30 μM; for inhibition of Hepa1-6 cell proliferation in combination with lenvatinib vs each agent alone: compound 100 μM + lenvatinib 30 μM; for inhibition of Hepa 1-6 cell proliferation in combination with regorafenib vs individual effects: compound 100 μM + regorafenib 5 μM; for inhibition of Hepa1-6 cell proliferation in combination with sorafenib vs each agent alone: compound 100 μM + sorafenib 5 μM
Experimental: Cell cultures. Hep3B (ATCC) and Hepa1-6 (ATCC) cells were seeded in 96-well plates at a density of 3000 cells/well with complete media. On day 2, media in each well was aspirated and replaced with 100 μl of fresh complete media and cells were treated with or without Compound I-1, Compound I-32, Compound I1-84, and Compound I-85, in a concentration dependent manner. Then, cells were incubated in an incubator for 72 h. On day 5, 10 μl of presto blue (Invitrogen, cat #A13261) cell viability reagent was added in each 96-well plate and incubated at 37° C. for 1-2 h. After incubation, fluorescence was measured with an excitation/emission wavelength of 560/590 nm.
Proliferation assay. Hep3B (ATCC) and Hepa1-6 (ATCC) cells were seeded in 96-well plates at a density of 3000 cells/well with complete media. On day 2, media in each well was aspirated and replaced with 100 μl of fresh complete media and cells were treated with/without testing compounds in a concentration dependent manner. Then, cells were incubated in an incubator for 72 h. On day 5, 10 μl of presto blue (Invitrogen, cat #A13261) cell viability reagent was added in each 96-well plate and incubated at 37° C. for 1-2 h. After incubation, fluorescence was measured with an excitation/emission wavelength of 560/590 nm. Anti-proliferative combination effects of Compound I-1 or Compound I-32 and regorafenib were determined in Hep3B and Hepa1-6 cells. Drug combination interaction was determined by the Chou-Talalay method (23), which is based on well-known equations for different reaction sequences and mechanisms, and different types of inhibition. These equations provide the theoretical basis for the combination index (CI)-isobologram equation that allows quantitative determination of drug interactions, where CI<1, =1, and >1 indicate synergism, additive effect, and antagonism, respectively. CI is calculated based on in vitro measurements implemented in the Compusyn software (www.combosyn.com), a platform for drug combinations pharmacodynamics with automated simulations. The software calculates CI based on the Fractional Inhibition (Fa), which is the potency expressed by the average effect values for each drug concentrations as determined by in vitro experiments. The dose-effect data entries are utilized for automated computerized analysis by the Compusyn software.
Data entered was obtained by in vitro experiments performed as follows: Hep3B or Hepa 1-6 cells were plated in a 96-well format and cell proliferation rates were determined as described above. Cells were treated with 5 doses of each test agent alone at the following concentrations: compounds of the invention dosed at 1, 5, 10, 50, or 100 μM for both Hep3B and Hepa1-6 cells, regorafenib dosed at 0.015, 0.075, 0.15, 0.75, and 1.5 μM for Hep3B cells or 0.05, 0.25, 0.5, 2.5, 5 μM for Hepa 1-6 cells. […]. Data are shown as Fa-CI plots where CI is the combination index and Fa is fractional inhibition. Results were indicated as mean±standard deviation (SD). All bar diagrams and line graphs were prepared using Graph Pad Prism 8 software. Drug synergy was calculated using the CompuSyn software.
Methods: Hep3B cells (supplied by ATCC) and Hepa1-6 cells (supplied by ATCC) were seeded in 96-well plates at a density of 3000 cells/well with complete media. On day 2, the media in each well was aspirated and replaced with 100 μL of fresh complete media, and the cells were treated in a concentration dependent manner with either Compound I-1, Compound I-32, Compound I-84, Compound I-85, sorafenib, lenvatinib, Compound I-1 in combination with sorafenib. Compound I-1 in combination with lenvatinib, Compound I-32 in combination with sorafenib, or Compound I-32 in combination with lenvatinib. The cells were then incubated in an incubator at 37° C. for 72 h. On day 5, 10 μL of presto blue (Invitrogen, cat #A13261) cell viability reagent was added to each 96-well plate and incubated at 37° C. for 1-2 h. […]

[2] = test system: human hematopoietic stem and progenitor cells (CD45+CD34+); assay: Megakaryopoiesis and platelet production in cultured hematopoietic stem and progenitor cells; type: cell-based; conditions: 30 μM, added day 6
Experimental: Materials and Methods. Hematopoietic stem and progenitor cells, identified as viable CD45+CD34+ cells, were isolated from peripheral blood of healthy donors by a method known in the art (see Ivetic N. Nazi I, Karim N et al. Producing megakaryocytes from a human peripheral blood source. Transfusion 2016; 56:1066-74). These isolated cells were then analyzed for purity before being expanded for four days using a commercial supplement to increase their cell population. After expansion, the cells were analyzed for purity, washed, and stimulated with a saturating concentration of thrombopoietin (20 ng/mL) and stem cell factor (50 ng/mL) to begin megakaryopoiesis. Compound I-32 and Compound I-1 were added at this timepoint at a concentration of 30 μM. The cells were then cultured for 8 days to develop into megakaryocytes and analyzed via flow cytometry to assess their number, maturity, and platelet count as defined by CD41a, CD42b and Calcein-AM expression. In addition, Compound I-32 and Compound I-1 were added to cells during the later stages of development (day 6) to assess their impact on maturation. ABT-737 ([…]) was used as a positive control and a DMSO vehicle control (<0.15% v/v) was the negative control. […]
Statistical analysis. Statistical analyses were carried out by comparing effects on measured parameters in comparison to vehicle control. […]

Structure (SMILES) | Hepa1-6 cell proliferation compared to control, compound alone [1] | IC50 [1] | synergism with lenvatinib (CI), Hepa1-6 cells [1] | inhibition of Hepa1-6 cell proliferation in combination with lenvatinib vs each agent alone [1] | inhibition of Hepa 1-6 cell proliferation in combination with regorafenib vs individual effects [1] | inhibition of Hepa1-6 cell proliferation in combination with sorafenib vs each agent alone [1] | synergism with sorafenib (CI), Hepa1-6 cells ([1]; compound and sorafenib: 1 μM and 0.05 μM, 10 μM and 0.25 μM, 50 μM and 2.5 μM, 100 μM and 5 μM) | inhibition of megakaryopoiesis/platelet parameters after addition on day 6 of culture [2] | synergism with sorafenib (CI), Hepa1-6 cells ([1]; all tested concentrations: 1 μM and 0.05 μM to 100 μM and 5 μM)
CC(C)(CCCCc1cccc(CCCCC(C)(C)C(=O)O)c1)C(=O)O [Compound I-32, 6-[3-(5-carboxy-5-methylhexyl)-phenyl]-2,2-dimethylhexanoic acid] | inhibited Hepa1-6 cell proliferation compared to control | > 100 µM | synergism | significantly greater inhibition of Hepa1-6 cell proliferation | greater inhibition of cell proliferation compared to their individual effects | significantly greater inhibition of Hepa1-6 cell proliferation | significant synergism | no inhibition detected | –
CC(C)(CCCCc1ccc(CCCCC(C)(C)C(=O)O)cc1)C(=O)O [Compound I-1, 6-[4-(5-carboxy-5-methylhexyl)-phenyl]-2,2-dimethylhexanoic acid] | inhibited Hepa1-6 cell proliferation compared to control | > 100 µM | synergism | significantly greater inhibition of Hepa1-6 cell proliferation | greater inhibition of cell proliferation compared to their individual effects | significantly greater inhibition of Hepa1-6 cell proliferation | – | no inhibition detected | synergism
